This note sets out measurements from patent US11478551B2, “Long-acting adrenomedullin derivative” (University of Miyazaki, priority 2015, dated 2022).

Holding throughout (assay type): in vivo
One data set deals with Wistar rat. The data set is described as follows: Blood pressure-lowering effect, single intravenous dose in rat under anesthesia. To be noted: 1 nmol/kg, single dose into the vein. As for the experimental part:
Each compound prepared in experiments I-1 and II-1 or full-length AM was administered in a single dose of 1 nmol/kg into the vein of each rat under anesthesia, and change in the blood pressure of the rat was observed. Each 11 to 14-week-old male Wistar rat was anesthetized by the inhalation of isoflurane. After tracheotomy, inhalational anesthesia was controlled at an isoflurane concentration of 1.5 to 2.5% and a flow rate of 0.6 to 0.8 L/min. The right jugular vein was isolated from the rat, and a catheter tube corresponding to 26 G was inserted thereto. Next, the left carotid artery was isolated from the rat thus treated, and a catheter tube corresponding to 23 G was inserted thereto. From the catheter tube of the right jugular vein, a physiological saline-heparin solution (physiological saline: 100 mL; heparin: 1000 units) was infused at 2.4 mL/hr. […] The catheter inserted in the carotid artery was connected to a pressure transducer. […] In the diagram, the ordinate depicts a difference obtained by subtracting the average blood pressure before the administration of each drug from the average blood pressure at the time of the administration of each drug.

Data set [1] in a line: Measurement over time of AM concentration in plasma after subcutaneous administration (RIA). The note with it: 10 nmol/kg subcutaneous single dose, rat. As for the experimental part: 1 day, 7 days and 10 days after the start of the administration, 50 mg of pentobarbital was intraperitoneally administered, and 300 μL of blood was collected each time from the tail vain under anesthesia. Immediately, 300 μg of EDTA-2Na and […] of aprotinin were added to the obtained blood sample, and the mixture was centrifuged under conditions involving 10 minutes and 3000 rpm to obtain plasma. The AM concentration in the plasma of each sample was measured by radioimmunoassay (RIA) (Kitamura K, Ichiki Y, Tanaka M et al., Immunoreactive adrenomedullin in human plasma. FEBS Lett., vol. 341, p. 288-90, 1994).
The compound (37) prepared in experiment III-1 was subcutaneously administered in a single dose of 30 nmol/kg to each rat, and time-dependent change in the concentration in blood of the adrenomedullin derivative was observed. The compound (37) dissolved in physiological saline was subcutaneously administered to each 7- to 8-week-old male Wistar rat (approximately 250 g). 1 day, 2 days, 4 days, 7 days and 9 days after the start of the administration, 50 mg of pentobarbital was intraperitoneally administered, and 300 μL of blood was collected each time from the tail vain under anesthesia. Immediately, 300 μg of EDTA-2Na and […] of aprotinin were added to the obtained blood sample, and the mixture was centrifuged under conditions involving 10 minutes and 3000 rpm to obtain plasma. The AM concentration in the plasma of each sample was measured by RIA.

Data set [2] deals with spontaneously hypertensive rat (SHR). The data set is described as follows: Effect of suppressing increase in blood pressure in spontaneously hypertensive rat (SHR) fed high-salt diet. The note with it: 336 μg/100 μL subcutaneous single dose, SHR on high-salt diet (8% NaCl), 9 days after administration. The procedure: Each 8-week-old male SHR (approximately 200 g) was fed with a high-salt diet (8% NaCl). The compound (8) was administered in a form dissolved in physiological saline at the time of feeding with the high-salt diet. 100 μL of physiological saline was subcutaneously administered in a single dose to each male SHR (approximately 200 g) in the same condition as above in a control group.

Data set [3] has as its system DSS-induced colitis models. The data set is described as follows: Dextran sodium sulfate (DSS)-induced colitis model. The note with it: mouse. The procedure: The compound (8) was subcutaneously administered to the back of each mouse. On the day following the administration (day 0), colitis model preparation was started by administration of 3% DSS as drinking water for 7 days. […] Physiological saline was administered as a vehicle to a control group. The body weight and the form of stool were evaluated on days 3, 5 and 7 counted from the start date of the DSS administration (day 0) on the basis of the scores shown in Table 4.

In data set [4] the test system is vascular occlusion model rats. The data set is described as follows: Vascular occlusion model, Morris water maze test. The note with it: 1 and 10 nmol/kg subcutaneous, rat. The procedure:
Physiological saline was administered as a vehicle to a control group. Then, the bilateral vertebral arteries were permanently occluded under anesthesia. On the next day, the bilateral common carotid arteries were occluded for 30 minutes under anesthesia using a suture thread. Then, the suture thread was removed, and blood flow was restarted. The date of the bilateral common carotid artery occlusion was defined as the date of the vascular occlusion model preparation, i.e., day 0. 9 days after the model preparation, the rat was caused to swim in the Morris water maze in one trial (training). The hidden platform test was conducted at intervals of 4 trials/day for 5 days from 10 days after the model preparation. On the fifth day of the hidden platform test (14 days after the model preparation), the probe test was conducted 1 hour after the final trial.
The Morris water maze test was conducted using an experimental apparatus described below. A round pool having a diameter of 150 cm, a height of 45 cm, and a water depth of 30 cm was provided. A clear colorless platform having a diameter of 12 cm was positioned approximately 1 cm below the water surface in the round pool. The water temperature of the round pool was set to 23±1° C. Indirect lighting was disposed within the room having the experimental apparatus placed therein, and visual cues (calendar, ball, cube and striped sheet) for the animals were arranged therein. In the test period, this arrangement was always constant. A video tracking system (Smart, Panlab, S.L.U.) was used in measurement.
The hidden platform test was conducted by procedures described below. […] The swimming time to arrive at the platform from the start (escape latency) was measured. […]
The probe test was conducted by procedures described below. […], the swimming time in a zone having the platform placed therein was measured. The stay rate (%) was calculated according to an expression given below using the measured swimming time. […]

In data set [5] the test system is adjuvant-induced arthritis models. The data set is described as follows: Adjuvant-induced arthritis model. To be noted: 1 and 10 nmol/kg subcutaneous, rat. The procedure:
The compound (8) was subcutaneously administered to each rat. […] Physiological saline was administered as a vehicle to a control group. The paw volumes and swelling rates of the right and left legs were measured on days 0 (day before the adjuvant administration), 4, 7, 10 and 14 using a paw volume measurement apparatus (MK-550, Muromachi Kikai Co., Ltd.). Inflammation scores on days 0 (day before the adjuvant administration), 4, 7, 10 and 14 were evaluated on the basis of the scores shown in Table 5.

Where only a bound is given, the exact number is not on record here.

For the substance “GL-2-branched CH3O-PEG (60k)-CH2-^αNH-(h.AM (1-52)) [Compound (8)]”, in the data set with Wistar rat, the “decrease in the blood pressure immediately after the administration, as compared to compound (2)” value is “further suppressed” and the “rapidly decreased blood pressure immediately after the administration” value is “not observed”. The level at time molar at 24 h in data set [1] (1 day later) was at least 2.6 nM. In data set [1] (7 days later), the level at time molar at 24 h was at least 0.74 nM. This substance also had a level at time molar at 24 h in data set [1] (10 days later) of at least 0.28 nM. Also, the “increase in the blood pressure compared to the control group” value in data set [2] is recorded as “suppressed”. For the same substance, in data set [3] (5 nmol/kg subcutaneous), the “wet weight of the intestinal tract as compared to the vehicle control group” value is “tendency to decrease”. Also, the “length of the intestinal tract as compared to the vehicle control group” value in data set [3] (25 nmol/kg subcutaneous) is on record as “tendency to increase”. The “total score (weight loss, stool consistency, bleeding/mucous and bloody stool)” value in data set [3] (5 and 25 nmol/kg subcutaneous, 3% DSS) is reported as “significant decrease”. In addition, in data set [4], the “death rate associated with the operation for the bilateral common carotid artery occlusion” value was “no significant difference”, the “escape latency in the hidden platform test as compared to the vehicle control group” value was “shortened” and the “stay rate in the probe test as compared to the vehicle control group” value was “significantly increased”. Besides, in data set [5], the “arthritis score (inflammation score) as compared to the vehicle control group” value is listed as “significantly decreased”, the “paw volume as compared to the vehicle control group” value was “significantly decreased” and the “swelling rate as compared to the vehicle control group” value is reported as “significantly decreased”.
